Source: patent US8591895B2, “Combinations for the treatment of diseases involving cell proliferation” (Boehringer Ingelheim International GmbH, priority 2004, dated 2013)
Read-outs that look alike come from different tables or passages of the source.

How the values were obtained:
[1] = format: in vivo; conditions: day 39, Nr. 46 30 mg/kg i.v., irinotecan 12.5 mg/kg i.p., once weekly; for body weight gain: controls gained 10.3%
NCI-H460 tumors = test: NCI-H460 lung model combination study: tumor growth of subcutaneous xenografts in nude mice; format: in vivo, human; conditions: Docetaxel 15 mg/kg i.v.; for T/C (tumor growth delay): day 17 (end of the controls), Nr. 46 50 mg/kg i.v., once weekly (q7d)x4, alone or combined; for delay of the average time to reach 1000 mm^3 in tumor volume compared to the controls: until day 71 (end of the study), weekly treatment until day 25, Nr. 46 50 mg/kg
Excerpt: (§1) The triangles indicate the treatment days.

[2] = for body weight gain: day 26, Nr. 46 50 mg/kg i.v., gemcitabine 100 mg/kg i.p., once weekly, controls gained 6.2%
Procedure: Suboptimal doses of both compounds were used to facilitate the detection of additive, synergistic or antagonistic effects. Design of the Study • Model: Human adenocarcinoma model BxPC-3 grown as subcutaneous xenografts in nude mice. • Treatment groups (10 animals per group): • Controls Vehicle, i.v., once weekly for 4 weeks ((q7d)×4) • Exemplified compound Nr.
Tumor volumes and animal weights were recorded 3 times per week. Evaluation of therapy results was based on the absolute volumes of individual tumors.
Mice were female BomTac:NMRI-nu/nu. […] Gemcitabin infusion concentrate was diluted with 0.9% NaCl and injected intraperitoneally. The administration volume was 10 ml per kg body weight for both compounds. BxPC-3 tumours were established from cultured BxPC-3. Tumour volumes were determined three times a week using a calliper. The weight of mice was determined as an indicator of tolerability on the same days. Plasma samples were taken on the last treatment day.

HCT 116 tumors = test: HCT 116 colon cancer model combination study: tumor growth of subcutaneous xenografts in nude mice; format: in vivo, human; conditions: Nr. 46 30 mg/kg i.v., irinotecan 12.5 mg/kg i.p.; for T/C (tumor growth delay): day 39 (end of the controls), once weekly (q7d)x10, alone or combined
BxPC-3 tumours = test: BxPC-3 pancreas model combination study: tumour growth of subcutaneous xenografts in nude mice; format: in vivo, human; conditions: day 26 (end of the controls); Nr. 46 50 mg/kg i.v., gemcitabine 100 mg/kg i.p., once weekly (q7d)x6, alone or combined
[3] = Tolerability (body weight) in NCI-H460 tumor-bearing nude mice; conditions: 10 animals per group; Docetaxel 15 mg/kg i.v., alone or with Nr. 46 50 mg/kg i.v.
Excerpt: as §1

| Structure (SMILES) | body weight gain [1] [%] | T/C (tumor growth delay) (NCI-H460 tumors) [%] | delay of the average time to reach 1000 mm^3 in tumor volume compared to the controls (NCI-H460 tumors) [days] | body weight gain [2] [%] | T/C (tumor growth delay) (HCT 116 tumors) [%] | delay of the average time to reach 1000 mm^3 in tumor volume (HCT 116 tumors; day 121 (end of the study), weekly treatment until day 64) [days] | T/C (tumour growth delay) (BxPC-3 tumours) [%] | tolerability [1] | tolerability of higher doses ([2]; mouse, in vivo) | mice euthanized due to severe loss of body weight [3] |
| --- | --- | --- | --- | --- | --- | --- | --- | --- | --- | --- |
| CC[C@@H]1C(=O)N(C)c2cnc(Nc3ccc(C(=O)NC4CCN(C)CC4)cc3OC)nc2N1C1CCCC1 [exemplified compound Nr. 46, 4-[[(7R)-8-cyclopentyl-7-ethyl-5,6,7,8-tetrahydro-5-methyl-6-oxo-2-pteridinyl]amino]-3-methoxy-N-(1-methyl-4-piperidinyl)-benzamide] | 8.6 | 65 | 4.0 | 8.2 | 20 | 33.7 | 28 | – | – | – |
| CCc1c2c(nc3ccc(OC(=O)N4CCC(N5CCCCC5)CC4)cc13)-c1cc3c(c(=O)n1C2)COC(=O)[C@]3(O)CC [irinotecan] | 5.9 | – | – | – | 25 | – | – | well tolerated | – | – |
| Nc1ccn([C@@H]2O[C@H](CO)[C@@H](O)C2(F)F)c(=O)n1 [gemcitabine, Gemcitabine] | – | – | – | 8.8 | – | – | 65 | – | not tolerated | – |
| CC(=O)O[C@@]12CO[C@@H]1C[C@H](O)[C@@]1(C)C(=O)[C@H](O)C3=C(C)[C@@H](OC(=O)[C@H](O)[C@@H](NC(=O)OC(C)(C)C)c4ccccc4)C[C@@](O)([C@@H](OC(=O)c4ccccc4)[C@H]21)C3(C)C [Docetaxel] | – | 42 | 10.5 | – | – | – | – | – | – | one mouse had to be euthanized |
